Measurements published in patent US4902720A (priority 1988, dated 1990).
Read-outs that look alike come from different tables or passages of the source.

Key:
HSV-1 (F strain) [1] = conditions: 2.5 mg/ml TEAC
HSV-1 (McKrae strain) [2] = conditions: for No. of Plaques: virus controls 270, 270, 252
Description: All cultures were incubated at 37° C. in a 5% CO2 humidified atmosphere. The cultures were stained with crystal violet to aid in counting the plaque.

HSV-1 and HSV-2 = assay type: cell-based
HSV-1 [3] = test: microbe, parasite or virus in culture; conditions: read-out: % Reduction
RK-13 cells = conditions: 25 mg/ml, 48 hours, 37° C.
Description: (§1) Healthy confluent monolayer cell cultures were overlaid with 1 ml of the drug and incubated for 48 hours at 37° C. and then stained. Cell cultures with maintenance media were used as controls.

Vero cells = conditions: 25 mg/ml, 48 hours, 37° C.
Description: as §1

[4] = test system: Flow 1000 cells (foreskin cells); conditions: 25 mg/ml, 48 hours, 37° C.
Description: as §1

HSV-1 (McKrae strain) [5] = conditions: Virus and Drug (20 mg/ml)
HSV-1 [6] = conditions: 20 mg/ml TEAC, virus control 1398
HSV-1 (F strain) [7] = conditions: for % plaque inhibition B: Exp. 1D
HSV-2 (333 strain) = conditions: for % plaque inhibition: 2 hours pre-incubation
Description: In Series No. 1 of Example No. 1, monolayer cultures of Vero, RK-13 (rabbit kidney), and WISH (human amnion, Hayflick) cells were used in the experiments of Example No. 1. The cells were grown in Basal Minimal Eagle's Media supplemented with 5% fetal calf serum, 1% glutamine, sodium bicarbote and antibiotics. Cultures were maintained in a maintenance media that was the same media, except that the maintenance media contained 2% fetal calf serum. An F Strain of HSV-1 was chosen because it is a well-known prototype of HSV-1. This F Strain can be obtained from the American Type Culture Collection (ATCC), 12301 Parklawn Drive, Rockville, MD 20852, at which it is identified as ATC-VR 733. For studies with HSV-2, a G strain of HSV-2 (ATCC-VR 734) and a 333 strain of HSV-2 were selected. These strains also can be obtained from the ATCC.
Two methods were used to test the drug's effectiveness in the suppression of viral growth. In the pre-inoculation experiments, the drug was added after adsorption of the virus. In the pre-incubation experiments, the drug was added prior to infection of the cell cultures.
Accordingly, the pre-inoculation experiments measured the effect of the drug on a cell that was already infected with the virus. The pre-incubation experiments measured the cell cultures that were treated with the drug prior to the inoculation to determine if these cells then would be permissive or non-permissive to the tested virus. In these experiments, plaque reduction assays provided a quantitative measure of antiviral activity and was deemed to be reliable and objective.
In the pre-incubation experiments, the media was either decanted or gently aspirated from the cultures. After decanting or aspirating, 1 ml of the drug dilution plus maintenance media was added to the cultures. The cultures that served as virus controls or cell controls received 2 ml of maintenance media. After the pre-treatment period, the media was again aspirated and the cell cultures were infected with the virus.
When this occurred, the cultures were fixed and stained with crystal violet. The plaque were then carefully counted under the microscope. By such a counting and careful comparison, percentages of plaque inhibition in the treated cultures were then calculated.
The 333 strain, which can be obtained from ATCC, was used.

SMILES: CC[N+](CC)(CC)CC.[Cl-] [TEAC, tetraethylammonium chloride]
- appearance of cell layers (vaccinia): thin
- plaque (vaccinia): did not have any plaque
- size of the plaque vs control (HSV-1 (F strain) [1]): appreciably smaller
- average number of plaque (HSV-1 (F strain) [1]; 1 ml + 4 ml media, after adsorption, control 488.5): 75.5 plaque
- No. of Plaques (HSV-1 (McKrae strain) [2]; 3.125 mg/ml): 247
- No. of Plaques (HSV-1 (McKrae strain) [2]; 6.250 mg/ml): 286
- No. of Plaques (HSV-1 (McKrae strain) [2]; 12.500 mg/ml): 300
- appearance of monolayer (HSV-1 (McKrae strain) [2]; 25 mg/ml): thinned out appearance
- No. of Plaques (HSV-1 (McKrae strain) [2]; 25.000 mg/ml): 0
- effectiveness in plaque inhibition (HSV-1 (McKrae strain) [2]; concentrations below 25 mg/ml): not significantly effective in achieving plaque inhibition
- permissiveness of cells to virus (HSV-1 and HSV-2; TEAC added before viral inoculation, time and dosage dependent): rendered the cells non-permissive to the virus and no plaque formed
- in vitro replication of HSV-1 and HSV-2 (HSV-1 and HSV-2; summary): inhibited the in vitro replication of HSV-1 and HSV-2
- plaque number and size (HSV-1 and HSV-2; summary): not only by the reduced number of plaque, but also by their reduced size
- inhibition at 20000 µg/mL (HSV-1 [3]; Human alphaherpesvirus 1, 4 h): 25%
- inhibition at 20000 µg/mL (HSV-1 [3]; Human alphaherpesvirus 1, 6 h): 57%
- inhibition at 20000 µg/mL (HSV-1 [3]; Human alphaherpesvirus 1, 8 h): 69%
- inhibition at 20000 µg/mL (HSV-1 [3]; Human alphaherpesvirus 1, 10 h): 88%
- toxicity (RK-13 cells): toxicity
- toxicity (Vero cells): slight toxicity
- toxicity [4]: toxicity
- cells exhibiting CPE, area of infection per field (HSV-1 (McKrae strain) [5]; 6 hours P.I., virus control 1/4): 1/6
- cells exhibiting CPE, area of infection per field (HSV-1 (McKrae strain) [5]; 30 hours P.I., virus control 1/2): scattered
- crusting (HSV type 1; Patient L, 2.9 cc (5.5 mg/kg), 7th day after treatment): the crusting had all disappeared
- time to clearing of lesions (HSV type 1; Patient M, 1% TEAC in hydrophillic ointment base, topical, five days later): cleared in a shorter time period than usual
- lesion (HSV type 1; Patient M, ointment resumed two months later, after three days): the lesion had not spread and had now crusted
- PFU/ml (HSV-1 [6]; removed 4 hours P.I.): 1042 PFU/ml
- PFU/ml (HSV-1 [6]; removed 6 hours P.I.): 596 PFU/ml
- PFU/ml (HSV-1 [6]; removed 8 hours P.I.): 436 PFU/ml
- PFU/ml (HSV-1 [6]; removed 10 hours P.I.): 163 PFU/ml
- % plaque inhibition (HSV-1 (F strain) [7]; Exp. 1C, 3 hours pre-incubation, 2.5 mg/culture): 10%
- % plaque inhibition (HSV-1 (F strain) [7]; Exp. 1C, 3 hours pre-incubation, 5.0 mg/culture): 22%
- % plaque inhibition (HSV-1 (F strain) [7]; Exp. 1C, 3 hours pre-incubation, 10.0 mg/culture): 71%
- % plaque inhibition B (HSV-1 (F strain) [7]; 3 hours pre-incubation, 12.5 mg/culture): 80%
- % plaque inhibition B (HSV-1 (F strain) [7]; 3 hours pre-incubation, 25.0 mg/culture): 79%
- % plaque inhibition B (HSV-1 (F strain) [7]; 3 hours pre-incubation, 50.0 mg/culture): 82%
- % plaque inhibition B (HSV-1 (F strain) [7]; 3 hours pre-incubation, 100.0 mg/culture): 79%
- % plaque inhibition (HSV-1 (F strain) [7]; Exp. 1E, 2 hours pre-incubation, 6.25 mg/culture): 0%
- % plaque inhibition (HSV-1 (F strain) [7]; Exp. 1E, 2 hours pre-incubation, 12.50 mg/culture): 18%
- % plaque inhibition (HSV-1 (F strain) [7]; Exp. 1E, 2 hours pre-incubation, 25.00 mg/culture): 17%
- % plaque inhibition (HSV-1 (F strain) [7]; Exp. 1E, 2 hours pre-incubation, 50.00 mg/culture): 24%
- % plaque inhibition (HSV-1 (F strain) [7]; Exp. 1E, 2 hours pre-incubation, 100.00 mg/culture): 68%
- % plaque inhibition (HSV-1 (F strain) [7]; Exp. 1E, 4 hours pre-incubation, 6.25 mg/culture): less than 20%
- % plaque inhibition (HSV-1 (F strain) [7]; Exp. 1E, 4 hours pre-incubation, 12.50 mg/culture): less than 20%
- % plaque inhibition (HSV-1 (F strain) [7]; Exp. 1E, 4 hours pre-incubation, 25.00 mg/culture): 37.5%
- % plaque inhibition (HSV-1 (F strain) [7]; Exp. 1E, 4 hours pre-incubation, 50.00 mg/culture): 63%
- appearance of cell layer (HSV-1 (F strain) [7]; Exp. 1E, 4 hours pre-incubation, 100.00 mg/culture): thin
- % plaque inhibition (HSV-1 (F strain) [7]; Exp. 1E, 4 hours pre-incubation, 100.00 mg/culture, cell layer thin): 100%
- % plaque inhibition (HSV-1 (F strain) [7]; Exp. 1E, 7 hours pre-incubation, 6.25 mg/culture): 50%
- % plaque inhibition (HSV-1 (F strain) [7]; Exp. 1E, 7 hours pre-incubation, 12.50 mg/culture): 76%
- % plaque inhibition (HSV-1 (F strain) [7]; Exp. 1E, 7 hours pre-incubation, 25.00 mg/culture): 96.5%
- % plaque inhibition (HSV-1 (F strain) [7]; Exp. 1E, 7 hours pre-incubation, 50.00 mg/culture): 95.7%
- appearance of cell layer (HSV-1 (F strain) [7]; Exp. 1E, 7 hours pre-incubation, 100.00 mg/culture): thin
- % plaque inhibition (HSV-1 (F strain) [7]; Exp. 1E, 7 hours pre-incubation, 100.00 mg/culture, cell layer thin): 100%
- % plaque inhibition (HSV-2 (333 strain); 6.25 mg/culture): 0%
- % plaque inhibition (HSV-2 (333 strain); 12.50 mg/culture): 25%
- % plaque inhibition (HSV-2 (333 strain); 25.00 mg/culture): 42%
- % plaque inhibition (HSV-2 (333 strain); 50.00 mg/culture): 56%
- sensitivity of HSV-2 (333 strain) to TEAC vs HSV-1 (HSV-2 (333 strain); based on Table 6): even more sensitive to TEAC than HSV-1
- sciatic pain (HSV type 2; Patient A, 2.8 cc (100 mg/cc), first infusion, immediately after): cessation of sciatic pain
- pain or lesions (HSV type 2; Patient A, about five weeks after third infusion 3.4 cc): no further pain or lesions
- time without lesions or pain (HSV type 2; Patient A, after first infusion): 52 to 53 days
- time until spots were gone (HSV type 2; Patient A, after third infusion): 24 h
- symptoms (HSV type 2; Patient A, approximately three weeks after first infusion): asymptomatic
- lesions or pain at last contact (HSV type 2; Patient A, eighteen months after the initial exam): no further lesions or pain
- time to disappearance of vesicles (HSV type 2; Patient A, recurrence after first infusion): two to three
- sciatic nerve pain (HSV type 2; Patient A, second infusion 3.2 cc): sciatic nerve pain disappeared during the infusion
- clearance (HSV type 2; Patient E, a week after second infusion, 2 pinpoint lesions remaining): 99%
- new pinpoint lesions (HSV type 2; Patient E, after third infusion): 5-6 pinpoint lesions
- lesions (HSV type 2; Patient E, third infusion 5 cc, 5 days later): all lesions had cleared up
- general condition (HSV type 2; Patient F, about 3 weeks after third infusion): completely cleared up
- lesion (HSV type 2; Patient F, first infusion 3.8 cc, next day): improved
- time to clearing of lesion (HSV type 2; Patient F, second infusion 4.5 cc): 48 h
- time to clearing of lesions (HSV type 2; Patient F, third infusion 4.0 cc): ≤ 4 days
- time until lesions were gone (HSV type 2; Patient G, first infusion 4.3 cc): ≤ 48 h
- long term outcome (HSV type 2; Patient J, 12 months later, ointment): the problem has resolved itself completely
- severity of subsequent attacks (HSV type 2; Patient K, after second infusion): milder severity
- anticipated massive attack (HSV type 2; Patient K, second infusion 3.4 cc, six weeks later): the attack had not occurred
